# Columns and labels:
# [1] = instrument: DT, stepped-field
# [2] = instrument: DT, single field, calibrated with Agilent tune mix (Agilent)
Compound,collision cross section (N2) ([1]; [M+H]+),collision cross section (N2) ([1]; [M+Na]+),further results
O=C1C[C@@H](c2ccc(O)c(O)c2)Oc2cc(O)cc(O)c21 [Eriodictyol],170.48 Å²,182.17 Å²,–
O=C(O)[C@@H]1C[C@@H](O)CN1 [Trans-4-Hydroxy-L-proline],130.23 Å²,–,–
CC(=O)NCCCC(=O)O [4-Acetamidobutanoic Acid],–,138.57 Å²,–
O=C(CO)[C@@H](O)[C@H](O)[C@H](O)[C@H](O)CO [D-Sedoheptulose],–,150.73 Å²,–
O=C(O)[C@H](O)[C@@H](O)[C@H](O)[C@H](O)CO [Gluconic Acid],141.89 Å²,149.77 Å²,–
COC(=O)C1=CO[C@@H](O[C@@H]2O[C@H](CO)[C@@H](O)[C@H](O)[C@H]2O)[C@@H]2[C@@H](C)[C@@H](O)C[C@H]12 [Loganin],–,195.65 Å²,–
CCCCCCCCCCCCCCCC(=O)OC(CC(=O)[O-])C[N+](C)(C)C (stereo not drawn) [Palmitoylcarnitine],216.1 Å²,230.37 Å²,–
N[C@@H](CCCC(=O)O)C(=O)O [L-2-Aminoadipic Acid],136.36 Å²,142.23 Å²,–
CCCCC/C=C\C\C=C/C=C/C=C/[C@@H](SC[C@H](N)C(=O)NCC(=O)O)[C@@H](O)CCCC(=O)O [Leukotriene D4],234.1 Å²,238.7 Å²,–
OC[C@H]1O[C@H](O[C@H]2[C@H](O)[C@@H](O)[C@@H](O[C@H]3[C@H](O)[C@@H](O)[C@@H](O[C@H]4[C@H](O)[C@@H](O)[C@@H](O)O[C@@H]4CO)O[C@@H]3CO)O[C@@H]2CO)[C@H](O)[C@@H](O)[C@@H]1O [Maltotetraose],–,230.47 Å²,–
COc1cc(-c2oc3cc(O)cc(O)c3c(=O)c2O)ccc1O [Isorhamnetin],172.96 Å²,195.91 Å²,–
Nc1ncnc2c1ncn2[C@@H]1O[C@H](COP(=O)(O)OP(=O)(O)O)[C@@H](O)[C@H]1O [Adenosine 5' Diphosphate],188.61 Å²,196.92 Å²,–
NC(=O)C[C@H](N)C(=O)O [L-Asparagine],131.54 Å²,131.94 Å²,–
N[C@H](CO)Cc1cnc[nH]1 [L-histidinol],130.9 Å²,136.57 Å²,–
CCCCCCCCCCCCCCCCCCC(=O)OCC(O)COP(=O)([O-])OCC[N+](C)(C)C (stereo not drawn) [LPC 19:0],–,244.1 Å²,–
CCCCC/C=C\C/C=C\CCCCCCCC(=O)OC [Methyl Linoleate],187.2 Å²,–,–
OC1OC[C@@H](O)[C@H](O)[C@H]1O (stereo partly drawn) [D-(+)-Xylose],–,132.07 Å²,–
CCNc1nc(NC(C)(C)C)nc(SC)n1 [Terbutryn],161.23 Å²,–,–
O=C[C@H](O[C@@H]1O[C@H](CO)[C@@H](O)[C@H](O)[C@H]1O)[C@@H](O)[C@H](O)[C@H](O)CO [Sophorose],–,183.57 Å²,–
Cc1ncc(COP(=O)(O)O)c(C=O)c1O [Pyridoxal 5'-Phosphate],154.76 Å²,165.05 Å²,–
O=C[C@@H](O)[C@H](O)[C@H](O)CO [D-Arabinose],–,143.27 Å²,–
CC1(O)CCOC(=O)C1 (stereo not drawn) [Mevalonolactone],–,143.67 Å²,–
Cc1cc(O)c2c(c1)C(=O)c1cc(O)cc(O)c1C2=O [Emodin],161.3 Å²,–,–
O=C(O)[C@H](O)[C@@H](O)[C@H](O)[C@H](O)COP(=O)(O)O [6-Phosphogluconic Acid],–,167.16 Å²,–
N[C@@H](CS)C(=O)O [L-Cysteine],149.57 Å²,151.34 Å²,–
CCCCCCCCCCCCCC(=O)SCCNC(=O)CCNC(=O)C(O)C(C)(C)COP(=O)(O)OP(=O)(O)OC[C@H]1O[C@@H](n2cnc3c(N)ncnc32)[C@H](O)[C@@H]1OP(=O)(O)O (stereo partly drawn) [Myristoyl-coenzyme A],–,–,collision cross section (N2) ([2]; [M+H]+): 289.9 Å²; collision cross section (N2) ([2]; [M-H]-): 290.65 Å²
CC1=CC(=O)c2ccccc2C1=O [Menadione],–,–,collision cross section (N2) ([2]; [M-H]-): 129.79 Å²
C=C1CC[C@H](O)C/C1=C/C=C1\CCC[C@]2(C)[C@@H]([C@H](C)CCCC(C)(C)O)CC[C@@H]12 [25-hydroxyvitamin D3],–,–,collision cross section (N2) ([2]; [M-H]-): 200.06 Å²
OC[C@@H](O)[C@@H](O)[C@H](O)[C@H](O)CO [D-Mannitol],–,–,collision cross section (N2) ([2]; [M+Na]+): 141 Å²
N[C@@H](Cc1cc(I)c(Oc2ccc(O)c(I)c2)c(I)c1)C(=O)O [Liothyronine],–,–,collision cross section (N2) ([2]; [M+H]+): 209.7 Å²; collision cross section (N2) ([2]; [M+Na-2H]-): 185.23 Å²
